Measurements from PubChem BioAssay AID248 (DTP/NCI, 2004).
Toxic doses and inconclusive results are not listed. No stated cut-off is given here; in the data, active means T/C of 150% or more; inactive means T/C below 125%.

System: L1210 leukemia ip in BDF1 mice, survival T/C
Assay: NCI In Vivo Anticancer Drug Screen. Data for tumor model L1210 Leukemia (intraperitoneal) in B6D2F1 (BDF1) mice
Details: endpoint: mean survival time, higher = longer survival
Method in brief: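 Transplantable tumor model; survival measured in treated vs vehicle control mice. Value = treated/control.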

[1] = dose: 100.0 mg/kg/injection, schedule: Q04DX003 (ip), vehicle: saline
[2] = dose: 200.0 mg/kg/injection, schedule: Q01DX009 (ip), vehicle: Klucel (hydroxypropylcellulose) (HPC)
[3] = dose: 100.0 mg/kg/injection, schedule: Q04DX003 (ip), vehicle: Klucel (hydroxypropylcellulose) (HPC)
[4] = dose: 200.0 mg/kg/injection, schedule: Q04DX003 (ip), vehicle: Klucel (hydroxypropylcellulose) (HPC)
[5] = dose: 400.0 mg/kg/injection, schedule: Q04DX003 (ip), vehicle: Klucel (hydroxypropylcellulose) (HPC)
[6] = dose: 100.0 mg/kg/injection, schedule: Q01DX001 (ip), vehicle: saline
[7] = dose: 200.0 mg/kg/injection, schedule: Q01DX001 (ip), vehicle: saline
[8] = dose: 400.0 mg/kg/injection, schedule: Q01DX001 (ip), vehicle: saline

Measured: T/C

CCCCC(=O)N(c1ccc(Nc2c3ccccc3nc3cc([N+](=O)[O-])ccc23)cc1)S(C)(=O)=O
active: dose: 6.25 mg/kg/injection, schedule: Q01DX009 (ip), vehicle: saline with Tween-80 160 % of control | dose: 16.5 mg/kg/injection, schedule: Q04DX003 (ip), vehicle: saline with Tween-80 150 % of control | dose: 25.0 mg/kg/injection, schedule: Q01DX009 (sc), vehicle: saline 179 % of control | dose: 25.0 mg/kg/injection, schedule: Q04DX003 (ip), vehicle: saline with Tween-80 153 % of control | dose: 44.0 mg/kg/injection, schedule: Q04DX003 (ip), vehicle: saline 168 % of control | dose: 50.0 mg/kg/injection, schedule: Q04DX003 (ip), vehicle: saline with Tween-80 242 % of control | dose: 100.0 mg/kg/injection, schedule: Q04DX003 (ip), vehicle: saline with Tween-80 188 % of control
inactive: dose: 3.18 mg/kg/injection, schedule: Q01DX009 (sc), vehicle: saline 119 % of control | dose: 25.0 mg/kg/injection, schedule: Q01DX009 (ip), vehicle: saline with Tween-80 95 % of control | dose: 67.0 mg/kg/injection, schedule: Q04DX003 (ip), vehicle: saline 92 % of control | [1] 103 % of control | dose: 200.0 mg/kg/injection, schedule: Q04DX003 (ip), vehicle: saline with Tween-80 100 % of control

CC1(C)C2CCC1(C)C2C=O (stereo unspecified)
inactive: dose: 100.0 mg/kg/injection, schedule: Q01DX009 (ip), vehicle: Klucel (hydroxypropylcellulose) (HPC) 96 % of control | [2] 93 % of control | dose: 400.0 mg/kg/injection, schedule: Q01DX009 (ip), vehicle: Klucel (hydroxypropylcellulose) (HPC) 96 % of control

OC[CH2][Hg][Cl]
inactive: dose: 1.56 mg/kg/injection, schedule: Q01DX009 (ip), vehicle: saline 94 % of control | dose: 3.13 mg/kg/injection, schedule: Q01DX009 (ip), vehicle: saline 86 % of control

COc1ccccc1C(O)(c1ccccc1)c1ccccc1OC
inactive: [3] 92 % of control | [4] 98 % of control | [5] 97 % of control

CCCCC1(CC)C(=O)NC(=S)NC1=O
inactive: [6] 114 % of control | [7] 104 % of control

Cc1ccc(C(C)C)c(OCCN2CC=CC2)c1
inactive: [6] 98 % of control | [7] 94 % of control

CN(C)Cc1cc(Cl)cc(Cc2cc(Cl)cc(CN(C)C)c2O)c1O
inactive: [6] 100 % of control | [1] 93 % of control | [7] 94 % of control | dose: 200.0 mg/kg/injection, schedule: Q04DX003 (ip), vehicle: saline 88 % of control | [8] 96 % of control | dose: 400.0 mg/kg/injection, schedule: Q04DX003 (ip), vehicle: saline 95 % of control

Cc1n(CCBr)c([N+](=O)[O-])c[n+]1C1N=C(c2ccccc2Cl)c2cc(Cl)ccc2NC1=O (stereo unspecified)
inactive: dose: 50.0 mg/kg/injection, schedule: Q01DX009 (ip), vehicle: Klucel (hydroxypropylcellulose) (HPC) 86 % of control | [2] 89 % of control

CNC(=S)n1ncnc1NC=O
inactive: dose: 100.0 mg/kg/injection, schedule: Q04DX003 (ip), vehicle: acetone 98 % of control

O=[N+]([O-])c1cccc([N+](=O)[O-])c1/C=N/Nc1nnc(N/N=C/c2c([N+](=O)[O-])cccc2[N+](=O)[O-])c2ccccc12
inactive: dose: 50.0 mg/kg/injection, schedule: Q01DX001 (ip), vehicle: saline 100 % of control | [6] 103 % of control | [7] 100 % of control | [8] 100 % of control

Oc1ccccc1C=Nc1cccc(Cl)c1Cl
inactive: [3] 91 % of control | [4] 98 % of control | [5] 100 % of control

Cc1ccc(C(O)(c2ccc(C)cc2)C2C(c3ccccc3)N2C)cc1 (stereo unspecified)
inactive: dose: 100.0 mg/kg/injection, schedule: Q01DX001 (ip), vehicle: Klucel (hydroxypropylcellulose) (HPC) 98 % of control | dose: 200.0 mg/kg/injection, schedule: Q01DX001 (ip), vehicle: Klucel (hydroxypropylcellulose) (HPC) 96 % of control | dose: 400.0 mg/kg/injection, schedule: Q01DX001 (ip), vehicle: Klucel (hydroxypropylcellulose) (HPC) 102 % of control

NCCSc1ccccc1C(=O)O
inactive: [3] 92 % of control | [4] 112 % of control | [5] 102 % of control
